Measurements as given in patent US10723723B2, “Substituted bicycle heterocyclic derivatives useful as ROMK channel inhibitors” (BRISTOL-MYERS SQUIBB COMPANY, priority 2016, dated 2020).

Target: hROMK (human Kir1.1) (Homo sapiens (Human), UniProt P48048)
Test: Thallium Flux Assay (FluxOR, CHO T-Rex hROMK stable cell line)
Type: cell-based
Conditions: CHO T-Rex hROMK cells, 10-point concentration response curve; read-out: Human ROMK TH Flux IC50

Chain of hROMK (human Kir1.1) (P48048 whole entry): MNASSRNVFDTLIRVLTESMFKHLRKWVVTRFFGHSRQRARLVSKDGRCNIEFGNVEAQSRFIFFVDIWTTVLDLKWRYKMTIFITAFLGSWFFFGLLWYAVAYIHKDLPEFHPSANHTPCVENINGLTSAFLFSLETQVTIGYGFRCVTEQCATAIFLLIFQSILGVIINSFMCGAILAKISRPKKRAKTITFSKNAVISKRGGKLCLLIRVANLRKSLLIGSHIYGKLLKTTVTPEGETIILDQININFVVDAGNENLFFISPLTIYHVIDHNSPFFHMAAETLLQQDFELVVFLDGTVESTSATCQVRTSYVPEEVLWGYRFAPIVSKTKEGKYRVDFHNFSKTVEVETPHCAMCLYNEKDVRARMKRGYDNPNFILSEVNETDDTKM

How did the IC50 turn out when `Cc1c([C@@H](O)CNCc2cnn(-c3ccc4oc(=O)n(C)c4n3)c2)ccc2c1COC2=O` [Example 145, (R)-5-(4-(((2-hydroxy-2-(4-methyl-1-oxo-1,3-dihydroisobenzofuran-5-yl)ethyl)amino)methyl)-1H-pyrazol-1-yl)-3-methyloxazolo[4,5-b]pyridin-2(3H)-one] was run?
The IC50 was 130 nM.

Which IC50 does the source give for `Cc1c(C(CO)NCCc2cccc(-c3ccc(C#N)c(F)c3)c2)ccc2c1COC2=O` (single isomer, unassigned) [Example 15-I, 3-fluoro-3′-(2-((2-hydroxy-1-(4-methyl-1-oxo-1,3-dihydroisobenzofuran-5-yl)ethyl)amino)ethy)-[1,1′-biphenyl]-4-carbonitrile] here?
The IC50 was 2000 nM.

Which IC50 does the source give for `Cc1c(C(CO)NCCc2cccc(-c3ccc(C#N)c(F)c3)c2)ccc2c1COC2=O` (single isomer, unassigned) [Example 15-II, 3-fluoro-3′-(2-((2-hydroxy-1-(4-methyl-1-oxo-1,3-dihydroisobenzofuran-5-yl)ethyl)amino)ethy)-[1,1′-biphenyl]-4-carbonitrile] here?
Its IC50 is 1500 nM.

`Cc1c([C@@H](O)CNCc2c[nH]c(-c3ccc4oc(=O)n(C)c4c3)n2)ccc2c1COC2=O` [Example 126, (R)-5-(4-(((2-hydroxy-2-(4-methyl-1-oxo-1,3-dihydroisobenzofuran-5-yl)ethyl)amino)methyl)-1H-imidazol-2-yl)-3-methylbenzo[d]oxazol-2(3H)-one] was tested. Which IC50 did it give?
Its IC50 is 580 nM.

With `Cc1c(C(O)CNCc2ccc3c(cnn3-c3ccc(F)cc3)c2)ccc2c1COC2=O` (single isomer, unassigned) [Example 16-I, 5-(2-(((1-(4-fluorophenyl)-1H-indazol-5-yl)methyl)amino)-1-hydroxyethyl)-4-methylisobenzofuran-1(3H)-one] as the molecule, how does the IC50 read?
The IC50 was 480 nM.

For `Cc1cn(-c2ncc(CNC[C@H](O)c3ccc4c(c3C)COC4=O)cn2)c(C2CC2)n1` [Example 153, (R)-5-(2-(((2-(2-cyclopropyl-4-methyl-1H-imidazol-1-yl)pyrimidin-5-yl)methyl)amino)-1-hydroxyethyl)-4-methylisobenzofuran-1(3H)-one], which IC50 is on record?
The IC50 was 520 nM.

With `Cc1ncn(-c2ncc(CNC[C@H](O)c3ccc4c(c3C)COC4=O)cn2)c1C(F)F` [Example 90, (R)-5-(2-(((2-(5-(difluoromethyl)-4-methyl-1H-imidazol-1-yl)pyrimidin-5-yl)methyl)amino)-1-hydroxyethyl)-4-methylisobenzofuran-1(3H)-one] as the molecule, how does the IC50 read?
Its IC50 is 230 nM.

How did the IC50 turn out when `Cc1cc(-n2nc(C)c(CNC[C@H](O)c3ccc4c(c3C)COC4=O)n2)ncc1C#N` [Example 58, (R)-6-(4-(((2-hydroxy-2-(4-methyl-1-oxo-1,3-dihydroisobenzofuran-5-yl)ethyl)amino)methyl)-5-methyl-2H-1,2,3-triazol-2-yl)-4-methylnicotinonitrile] was run?
The IC50 was 300 nM.

How did the IC50 turn out when `Cc1cc(-n2cc(CNC[C@@H](c3ccc4c(c3C)COC4=O)N3CCCS3(=O)=O)cn2)ncc1C#N` [Example 66, (R)-6-(4-(((2-(1,1-dioxidoisothiazolidin-2-yl)-2-(4-methyl-1-oxo-1,3-dihydroisobenzofuran-5-yl)ethyl)amino)methyl)-1H-pyrazol-1-yl)-4-methylnicotinonitrile] was run?
The IC50 was 260 nM.

`Cc1cc(-n2[nH]cc(CNC[C@H](O)c3ccc4c(c3C)COC4=O)c2=O)ncc1C#N` [Example 36, (R)-6-(4-(((2-hydroxy-2-(4-methyl-1-oxo-1,3-dihydroisobenzofuran-5-yl)ethyl)amino)methyl)-5-oxo-2,5-dihydro-1H-pyrazol-1-yl)-4-methylnicotinonitrile] was tested. Which IC50 did it give?
The IC50 was 390 nM.

`Cc1c(C(CO)N(C)Cc2cnc(-c3ccc4oc(=O)n(C)c4c3)nc2)ccc2c1COC2=O` (single isomer, unassigned) [Example 14-I, 5-(5-(((2-hydroxy-1-(4-methyl-1-oxo-1,3-dihydroisobenzofuran-5-yl)ethyl)(methyl)amino)methyl)pyrimidin-2-yl)-3-methylbenzo[d]oxazol-2(3H)-one] was tested. Which IC50 did it give?
Its IC50 is 4000 nM.

How did the IC50 turn out when `Cc1nnn(-c2ccc(CNC[C@H](O)c3ccc4c(c3C)COC4=O)cn2)n1` [Example 127, (R)-5-(1-hydroxy-2-(((6-(5-methyl-2H-tetrazol-2-yl)pyridin-3-yl)methyl)amino)ethyl)-4-methylisobenzofuran-1(3H)-one] was run?
The IC50 was 420 nM.

With `COc1cc(-n2cc(CNC[C@H](O)c3ccc4c(c3C)COC4=O)cn2)ccn1` [Example 80, (R)-5-(1-hydroxy-2-(((1-(2-methoxypyridin-4-yl)-1H-pyrazol-4-yl)methyl)amino)ethyl)-4-methylisobenzofuran-1(3H)-one] as the molecule, how does the IC50 read?
Its IC50 is 530 nM.

For `Cc1cc(-n2ncc(C(C)NC[C@H](O)c3ccc4c(c3C)COC4=O)n2)ncc1C#N` (single isomer, unassigned) [Example 59], which IC50 is on record?
The IC50 was 540 nM.

`Cc1c(C(O)CN(C)Cc2ccc(-n3ccc4c(C#N)cccc43)nc2)ccc2c1COC2=O` (single isomer, unassigned) [Example 25-II, 1-(5-(((2-hydroxy-2-(4-methyl-1-oxo-1,3-dihydroisobenzofuran-5-yl)ethyl)(methyl)amino)methyl)pyridin-2-yl)-1H-indole-4-carbonitrile] was tested. Which IC50 did it give?
The IC50 was 520 nM.

For `CNC(=O)O[C@@H](CNCc1cnn(-c2cc(C)c(C#N)cn2)c1)c1ccc2c(c1C)COC2=O` [Example 144, (R)-2-(((1-(5-cyano-4-methylpyridin-2-yl)-1H-pyrazol-4-yl)methyl)amino)-1-(4-methyl-1-oxo-1,3-dihydroisobenzofuran-5-yl)ethyl methylcarbamate], which IC50 is on record?
Its IC50 is 140 nM.

How did the IC50 turn out when `Cc1cc(-c2nc(CNC[C@H](O)c3ccc4c(c3C)COC4=O)n(C)n2)ncc1C#N` [Example 42, (R)-6-(5-(((2-hydroxy-2-(4-methyl-1-oxo-1,3-dihydroisobenzofuran-5-yl)ethyl)amino)methyl)-1-methyl-1H-1,2,4-triazol-3-yl)-4-methylnicotinonitrile] was run?
The IC50 was 855 nM.

For `Cc1c(C(O)CN(C)Cc2ccc(-c3ccc(C#N)c(F)c3)cc2)ccc2c1COC2=O` (single isomer, unassigned) [Example 27-II, 3-fluoro-4′-(((2-hydroxy-2-(4-methyl-1-oxo-1,3-dihydroisobenzofuran-5-yl)ethyl)(methyl)amino)methyl)-[1,1′-biphenyl]-4-carbonitrile], which IC50 is on record?
Its IC50 is 240 nM.

Which IC50 does the source give for `Cc1c(C(O)CN(C)Cc2ccc(-n3ccc4c(C#N)cccc43)nc2)ccc2c1COC2=O` (single isomer, unassigned) [Example 25-I, 1-(5-(((2-hydroxy-2-(4-methyl-1-oxo-1,3-dihydroisobenzofuran-5-yl)ethyl)(methyl)amino)methyl)pyridin-2-yl)-1H-indole-4-carbonitrile] here?
The IC50 was 240 nM.

How did the IC50 turn out when `Cc1c(C(O)CN(C)Cc2ccc(-n3cc(C#N)c4ccccc43)cc2)ccc2c1COC2=O` (single isomer, unassigned) [Example 12-II, 1-(4-(((2-hydroxy-2-(4-methyl-1-oxo-1,3-dihydroisobenzofuran-5-yl)ethyl)(methyl)amino)methyl)phenyl)-1H-indole-3-carbonitrile] was run?
The IC50 was 520 nM.

`CN(Cc1ccc(-c2ccc(C#N)c(F)c2)nc1)CC(O)c1ccc2oc(=O)n(C)c2c1` (single isomer, unassigned) [Example 24-II, 2-fluoro-4-(5-(((2-hydroxy-2-(3-methyl-2-oxo-2,3-dihydrobenzo[d]oxazol-5-yl)ethyl)(methyl)amino)methyl)pyridin-2-yl)benzonitrile] was tested. Which IC50 did it give?
Its IC50 is 2400 nM.

Which IC50 does the source give for `Cc1cc(-c2ccc(CN(C)CC(O)c3ccc4c(c3C)COC4=O)cc2)ncc1C#N` (single isomer, unassigned) [Example 31-II, 6-(4-(((2-hydroxy-2-(4-methyl-1-oxo-1,3-dihydroisobenzofuran-5-yl)ethyl)(methyl)amino)methyl)phenyl)-4-methylnicotinonitrile] here?
Its IC50 is 370 nM.

For `Cc1cc(-n2cc(CN(CC3CCOC3)C[C@H](O)c3ccc4c(c3C)COC4=O)cn2)ncc1C#N` (stereo partly drawn) [Example 85, 6-(4-((((R)-2-hydroxy-2-(4-methyl-1-oxo-1,3-dihydroisobenzofuran-5-yl)ethyl)((tetrahydrofuran-3-yl)methyl)amino)methyl)-1H-pyrazol-1-yl)-4-methylnicotinonitrile], which IC50 is on record?
Its IC50 is 230 nM.

For `Cc1c([C@@H](O)CNCc2cnn(-c3cc(OC(C)C)c(C#N)cn3)c2)ccc2c1COC2=O` [Example 157, (R)-6-(4-(((2-hydroxy-2-(4-methyl-1-oxo-1,3-dihydroisobenzofuran-5-yl)ethyl)amino)methyl)-1H-pyrazol-1-yl)-4-isopropoxynicotinonitrile], which IC50 is on record?
The IC50 was 31 nM.

With `Cc1c(C(O)CNCc2ccc(-c3ccc(C#N)c(F)c3)cc2)ccc2c1COC2=O` (single isomer, unassigned) [Example 10-II, 3-fluoro-4′-(((2-hydroxy-2-(4-methyl-1-oxo-1,3-dihydroisobenzofuran-5-yl)ethyl)amino)methyl)-[1,1′-biphenyl]-4-carbonitrile] as the molecule, how does the IC50 read?
The IC50 was 140 nM.

How did the IC50 turn out when `Cc1c(C(O)CN(C)Cc2cnc(-n3ncc4ncccc43)nc2)ccc2c1COC2=O` (single isomer, unassigned) [Example 17-I, 5-(2-(((2-(1H-pyrazolo[4,3-b]pyridin-1-yl)pyrimidin-5-yl)methyl)(mehyl)amino)-1-hydroxyethyl)-4-methylisobenzofuran-1(3H)-one] was run?
Its IC50 is 1500 nM.

Which IC50 does the source give for `Cc1c(C(O)CN(C)Cc2cnc(-c3ccc4oc(=O)n(C)c4c3)nc2)ccc2c1COC2=O` (stereo not drawn) [Example 9-I] here?
The IC50 was 290 nM.

How did the IC50 turn out when `Cc1c([C@@H](O)CNCc2cnn(-c3ccc4oc(=O)[nH]c4c3)c2)ccc2c1COC2=O` [Example 121, (R)-5-(4-(((2-hydroxy-2-(4-methyl-1-oxo-1,3-dihydroisobenzofuran-5-yl)ethyl)amino)methyl)-1H-pyrazol-1-yl)benzo[d]oxazol-2(3H)-one] was run?
Its IC50 is 160 nM.

With `Cc1c([C@@H](O)CN(C)Cc2ccc(-c3ccc4oc(=O)n(C)c4c3)cn2)ccc2c1COC2=O` (single isomer, unassigned) [Example 84] as the molecule, how does the IC50 read?
Its IC50 is 82 nM.

Which IC50 does the source give for `Cc1cc(-n2cc(CNC[C@H](O)c3ccc4c(c3C)COC4=O)ccc2=O)ncc1C#N` [Example 99, (R)-5-(((2-hydroxy-2-(4-methyl-1-oxo-1,3-dihydroisobenzofuran-5-yl)ethyl)amino)methyl)-4′-methyl-2-oxo-2H-[1,2′-bipyridine]-5′-carbonitrile] here?
The IC50 was 140 nM.
